# Read-outs that look alike come from different tables or passages of the source.
# Key:
# [1] = rcm bond
# [2] = biological target: T1, Human Calpain 2/NS1 (Homo sapiens, UniProt P17655); experiment: Biochemical inhibition of calpain 2, continuous fluorescence (FRET substrate) assay; conditions: mean, read-out: Human Calpain 2/NS1 IC50 (nM)_MEAN
# T1 sequence (P17655 1-700): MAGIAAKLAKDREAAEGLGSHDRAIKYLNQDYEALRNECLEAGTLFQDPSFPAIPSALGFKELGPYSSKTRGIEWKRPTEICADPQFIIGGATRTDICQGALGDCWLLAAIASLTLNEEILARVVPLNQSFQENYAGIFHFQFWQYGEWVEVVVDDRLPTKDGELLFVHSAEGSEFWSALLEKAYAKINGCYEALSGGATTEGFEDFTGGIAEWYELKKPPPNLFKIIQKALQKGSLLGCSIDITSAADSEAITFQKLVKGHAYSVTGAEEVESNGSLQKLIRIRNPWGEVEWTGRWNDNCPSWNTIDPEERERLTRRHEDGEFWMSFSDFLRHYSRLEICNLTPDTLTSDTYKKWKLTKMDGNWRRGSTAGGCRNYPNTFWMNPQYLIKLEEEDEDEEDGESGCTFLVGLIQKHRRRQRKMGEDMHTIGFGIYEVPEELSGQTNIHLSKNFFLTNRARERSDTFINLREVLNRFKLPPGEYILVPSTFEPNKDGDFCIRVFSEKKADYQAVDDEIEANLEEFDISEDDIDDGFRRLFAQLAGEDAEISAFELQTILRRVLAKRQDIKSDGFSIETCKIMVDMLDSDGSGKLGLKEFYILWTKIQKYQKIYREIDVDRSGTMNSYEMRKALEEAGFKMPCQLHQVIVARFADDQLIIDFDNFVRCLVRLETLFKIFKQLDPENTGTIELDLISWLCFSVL
# T1 sequence (P04632 1-268 partner): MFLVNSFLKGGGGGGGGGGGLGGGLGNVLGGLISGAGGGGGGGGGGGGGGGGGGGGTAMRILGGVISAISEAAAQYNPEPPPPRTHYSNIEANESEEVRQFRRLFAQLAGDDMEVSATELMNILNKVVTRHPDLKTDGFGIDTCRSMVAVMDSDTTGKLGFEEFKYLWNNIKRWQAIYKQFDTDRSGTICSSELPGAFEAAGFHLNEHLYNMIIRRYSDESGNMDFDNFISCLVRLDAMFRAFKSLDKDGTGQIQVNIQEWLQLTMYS
# How it was run: (§1)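 IC50 values come from 4-parameter fits of progress-curve rates (1-5 min slopes) against log inhibitor concentration. Calpain and inhibitor premixed at ambient 25C in Tris pH ~7.5/NaCl/DTT buffer, then CaCl2 and FRET substrate added to activate; 5-FAM fluorescence (ex 490/em 520) followed 10 min.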
# [3] = biological target: T2, Human Calpain 1/NS1 (Homo sapiens, UniProt P07384); experiment: Biochemical inhibition of calpain 1, continuous fluorescence (FRET substrate) assay; conditions: mean, read-out: Human Calpain 1/NS1 IC50 (nM)_MEAN
# T2 sequence (P07384 1-714): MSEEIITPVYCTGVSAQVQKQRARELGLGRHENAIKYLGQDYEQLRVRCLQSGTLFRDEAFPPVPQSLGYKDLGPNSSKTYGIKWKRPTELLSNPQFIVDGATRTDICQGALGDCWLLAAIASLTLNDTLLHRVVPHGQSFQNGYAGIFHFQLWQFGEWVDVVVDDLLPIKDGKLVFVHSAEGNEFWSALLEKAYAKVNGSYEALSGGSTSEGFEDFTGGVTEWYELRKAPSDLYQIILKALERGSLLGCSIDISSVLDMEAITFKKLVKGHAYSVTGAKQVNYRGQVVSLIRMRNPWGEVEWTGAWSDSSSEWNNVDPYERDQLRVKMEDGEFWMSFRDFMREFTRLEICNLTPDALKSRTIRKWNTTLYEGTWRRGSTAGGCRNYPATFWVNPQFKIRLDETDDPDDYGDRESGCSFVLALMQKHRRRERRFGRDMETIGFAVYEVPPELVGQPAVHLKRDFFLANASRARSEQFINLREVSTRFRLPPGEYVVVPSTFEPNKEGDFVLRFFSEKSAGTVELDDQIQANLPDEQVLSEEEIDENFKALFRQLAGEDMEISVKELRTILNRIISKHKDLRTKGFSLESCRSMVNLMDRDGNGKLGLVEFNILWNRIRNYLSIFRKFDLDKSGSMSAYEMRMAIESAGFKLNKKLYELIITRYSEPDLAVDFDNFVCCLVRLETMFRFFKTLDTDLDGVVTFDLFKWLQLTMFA
# T2 sequence (P04632 1-268 partner): T1 sequence (P04632 1-268 partner)
# How it was run: as §1
# [4] = biological target: T3, Human Calpain 9/NS1 (Homo sapiens, UniProt O14815); experiment: Biochemical inhibition of calpain 9, continuous fluorescence (FRET substrate) assay; conditions: mean, read-out: Human Calpain 9/NS1 IC50 (nM)_MEAN
# T3 sequence (O14815 1-690): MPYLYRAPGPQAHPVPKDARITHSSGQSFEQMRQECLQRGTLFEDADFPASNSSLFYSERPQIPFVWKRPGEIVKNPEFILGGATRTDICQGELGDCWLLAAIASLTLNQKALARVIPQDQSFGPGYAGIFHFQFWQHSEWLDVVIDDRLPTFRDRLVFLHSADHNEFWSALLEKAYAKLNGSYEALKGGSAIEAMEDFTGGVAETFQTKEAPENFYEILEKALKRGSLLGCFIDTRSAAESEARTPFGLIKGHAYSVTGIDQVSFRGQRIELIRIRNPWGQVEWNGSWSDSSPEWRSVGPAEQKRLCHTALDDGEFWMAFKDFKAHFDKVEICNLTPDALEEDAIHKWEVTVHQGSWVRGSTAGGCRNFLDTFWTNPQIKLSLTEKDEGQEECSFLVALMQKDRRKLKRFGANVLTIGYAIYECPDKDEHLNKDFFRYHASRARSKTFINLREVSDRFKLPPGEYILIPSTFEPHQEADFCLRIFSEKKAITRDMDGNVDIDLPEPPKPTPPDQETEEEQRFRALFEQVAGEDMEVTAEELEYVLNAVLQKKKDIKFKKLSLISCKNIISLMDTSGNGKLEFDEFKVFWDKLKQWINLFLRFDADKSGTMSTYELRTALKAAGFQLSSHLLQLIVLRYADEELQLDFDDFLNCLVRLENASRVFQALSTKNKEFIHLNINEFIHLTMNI
# T3 sequence (P04632 1-268 partner): T1 sequence (P04632 1-268 partner)
# How it was run: as §1
IC50 [2] [nM],IC50 [3] [nM],IC50 [4] [nM],Molecule,further results
–,–,–,CCOC(=O)[C@@H]1CC=CCCCCCc2ccccc2C(=O)N1,"ring closure, yield of all isomers ([1]; from C=CCCCCCc1ccccc1C(=O)N[C@@H](CC=C)C(=O)OCC, Grubbs 2nd generation catalyst, DCM, 8.31 mM, 50.0 °C, 14.0 h): 18.1%"
–,–,–,COC(=O)[C@@H]1Cc2ccc(cc2)CC=CCc2ccc3nn(cc3c2)-c2ncccc2C(=O)N1,"ring closure, yield of all isomers ([1]; from C=CCc1ccc(C[C@H](NC(=O)c2cccnc2-n2cc3cc(CC=C)ccc3n2)C(=O)OC)cc1, Zhan catalyst-1B, DCE, 3.09 mM, 90.0 °C, 14.0 h): 19.4%"
–,–,–,COC(=O)[C@@H]1Cc2ccc(cc2)CC=CCc2cccc(c2)-c2ccn(n2)-c2ncccc2C(=O)N1,"ring closure, yield of all isomers ([1]; from C=CCc1ccc(C[C@H](NC(=O)c2cccnc2-n2ccc(-c3cccc(CC=C)c3)n2)C(=O)OC)cc1, Hoveyda-Grubbs catalyst 1st generation, DCE, 4.94 mM, 90.0 °C, 64.0 h): 43.6%"
–,–,–,COC(=O)[C@@H]1Cc2ccc(cc2)OCC=CCOc2cccc(c2)-c2ccn(n2)-c2ncccc2C(=O)N1,"ring closure, yield of all isomers ([1]; from C=CCOc1ccc(C[C@H](NC(=O)c2cccnc2-n2ccc(-c3cccc(OCC=C)c3)n2)C(=O)OC)cc1, Grubbs II, 1,2-dichloroethane, 8.35 mM, 90.0 °C, 48.0 h): 47%"
–,–,–,CON(C)C(=O)[C@@H]1CC=CCCCCCc2ccccc2C(=O)N1,"ring closure, yield of all isomers ([1]; from C=CCCCCCc1ccccc1C(=O)N[C@@H](CC=C)C(=O)N(C)OC, Grubbs 2nd generation catalyst, DCM, 6.37 mM, 48.0 °C, 16.0 h): 49.4%"
–,–,–,CON(C)C(=O)[C@@H]1CC=CCCCCCc2ncccc2C(=O)N1,"ring closure, yield of all isomers ([1]; from C=CCCCCCc1ncccc1C(=O)N[C@@H](CC=C)C(=O)N(C)OC, Grubbs catalyst 2nd generation, DCE, 9.93 mM, 95.0 °C, 48.0 h): 65.1%"
–,–,–,CON(C)C(=O)[C@@H]1CC=CCCOc2ccnc(c2)-c2ccccc2C(=O)N1,"ring closure, yield of all isomers ([1]; from C=CCCOc1ccnc(-c2ccccc2C(=O)N[C@@H](CC=C)C(=O)N(C)OC)c1, Zhan Catalyst-1B, DCE, 2.87 mM, 95.0 °C, 16.0 h): 43.4%"
–,–,–,CON(C)C(=O)[C@@H]1CC=CCOCCOCc2ccccc2C(=O)N1,"ring closure, yield of all isomers ([1]; from C=CCOCCOCc1ccccc1C(=O)N[C@@H](CC=C)C(=O)N(C)OC, Grubbs 2nd generation catalyst, DCE, 6.64 mM, 80.0 °C, 10.0 h): 86.7%; ring closure, yield of all isomers ([1]; from C=CCOCCOCc1ccccc1C(=O)N[C@@H](CC=C)C(=O)N(C)OC, Grubbs II, 1,2-dichloroethane, 6.64 mM, 80.0 °C, 10.0 h): 91.3%"
< 3000,< 3000,< 3000,"C/C1=C\C[C@@H](C(=O)C(N)=O)NC(=O)c2cc(C)nn2-c2cccc(c2)OCC1 [Compound 145, (S,E)-2-(1^3,6-dimethyl-11-oxo-1H-3-oxa-10-aza-1(1,5)-pyrazola-2(1,3)-benzenacycloundecaphan-6-en-9-yl)-2-oxoacetamide]",–
< 3000,< 3000,< 3000,"O=C[C@@H]1CCCCCOc2ccc(F)c(c2)-c2ccccc2C(=O)N1 [Compound 146, (S)-2^6-fluoro-11-oxo-3-oxa-10-aza-1(1,2),2(1,3)-dibenzenacycloundecaphane-9-carbaldehyde]",–
> 10000,> 10000,> 10000,NC(=O)C(O)[C@@H]1CCCCCOc2ccnc(n2)-c2ccccc2C(=O)N1 (stereo partly drawn) [Compound 147],–
< 3000,< 3000,< 3000,"NC(=O)C(=O)[C@@H]1CCCCCOc2ccc(F)c(c2)-c2ccccc2C(=O)N1 [Compound 148, (S)-2-(2^6-fluoro-11-oxo-3-oxa-10-aza-1(1,2),2(1,3)-dibenzena-cycloundecaphane-9-yl)-2-oxoacetamide]",–
< 3000,< 3000,< 3000,"O=C[C@@H]1CCCCCOc2ccnc(c2)-c2ccccc2C(=O)N1 [Compound 149, (S)-3-oxo-11-oxa-4-aza-1(2,4)-pyridina-2(1,2)-benzenacycloundecaphane-5-carbaldehyde]",–
< 3000,< 3000,< 3000,"(S)-2-(1^3-methyl-11-oxo-1^1H-3-oxa-10-aza-1(1,5)-pyrazola-2(1,3)-benzenacycloundecaphane-9-yl)-2-oxoacetamide [Compound 143]",–

# Source: US11292801B2, “Calpain modulators and therapeutic uses thereof” (Blade Therapeutics, Inc., priority 2016, dated 2022)
